The results in this text go back to patent publication US8420657B2 (Novartis AG, priority 2008, dated 2013).

One may read the IC50 as the concentration needed to halve the response being measured.

SMILES strings stand for the structures.

In the test the target is T1, GST-JAK2(808-1132) (Homo sapiens, UniProt O60674).
T1 construct: GST-JAK2(808-1132); purchased Invitrogen (Carlsbad, USA) #4288
T1 sequence (O60674 808-1132): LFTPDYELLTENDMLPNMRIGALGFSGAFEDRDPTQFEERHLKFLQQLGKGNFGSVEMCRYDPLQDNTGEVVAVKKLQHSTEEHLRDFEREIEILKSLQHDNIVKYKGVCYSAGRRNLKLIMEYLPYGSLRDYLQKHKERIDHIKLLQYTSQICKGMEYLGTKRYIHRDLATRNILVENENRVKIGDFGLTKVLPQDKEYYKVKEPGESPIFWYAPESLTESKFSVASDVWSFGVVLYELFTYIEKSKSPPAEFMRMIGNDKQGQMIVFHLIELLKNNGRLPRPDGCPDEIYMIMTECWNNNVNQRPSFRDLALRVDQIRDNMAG
Briefly: JAK2 kinase assay (Caliper mobility shift, LabChip 3000). The test is classed as biochemical. An excerpt: All four kinases of the JAK/TYK-kinase family were used as purified recombinant GST-fusion proteins, containing the active kinase domains. GST-JAK1 (866-1154), GST-JAK3(811-1124), and GST-TYK2(888-1187) were expressed and purified by affinity chromatography at the EPK biology unit. GST-JAK2(808-1132) was purchased from Invitrogen (Carlsbad, USA, #4288).
The kinase assays were based on the Caliper mobility shift assay using the LabChip 3000 systems. This technology is similar to capillary electrophoresis and uses charge driven separation of substrate and product in a microfluidic chip.
All kinase reactions were performed in 384 well microtiter plates in a total reaction volume of 18 μl. The assay plates were prepared with 0.1 μl per well of test compound in the appropriate test concentration, as described under the section “preparation of compound dilutions”. The reactions were started by combining 9 μl of substrate mix (consisting of peptide and ATP) with 9 μl of kinase dilution. The reactions were incubated for 60 minutes at 30° C. and stopped by adding 70 μl of stop buffer (100 mM Hepes, 5% DMSO, 0.1% Coating reagent, 10 mM EDTA, 0.015% Brij 35).
Fluorescently labeled synthetic peptides were used as substrates in all reactions. A peptide derived from the sequence of IRS-1(IRS-1 peptide, SEQ ID NO: 1 FITC-Ahx-KKSRGDYMTMQIG-NH2) was used for JAK1 and TYK2 and a peptide named JAK3tide SEQ ID NO: 2 (FITC-GGEEEEYFELVKKKK-NH2) for JAK2 and JAK3. Specific assay conditions are described in Table1:
The terminated reactions were transferred to the Caliper LabChip 3000 reader and the turnover of each reaction was measured by determining the substrate/product ratio.
Test compounds were dissolved in DMSO (10 mM) and transferred into 1.4 mL flat bottom or V-shaped Matrix tubes carrying a unique 2D matrix chip by individual compound hubs. The numbers of these chips were distinctively linked to the individual compound identification numbers. The stock solutions were stored at −20° C. if not used immediately. For the test procedure the vials were defrosted and identified by a scanner whereby a working sheet was generated that guided the subsequent working steps. Compound dilutions were made in 96 well plates. This format enabled the assay of maximally 40 individual test compounds at 8 concentrations (single points) including 4 reference compounds. The dilution protocol included the production of pre-dilution plates, master plates and assay plates:
Pre-dilution plates: 96 polypropylene well plates were used as pre-dilution plates. A total of 4 pre-dilution plates were prepared including 10 test compounds each on the plate positions A1-A10, one standard compound at A11 and one DMSO control at A12. All dilution steps were done on a HamiltonSTAR robot.
Master plates: 100 μL of individual compound dilutions including standard compound and controls of the 4 “pre-dilution plates” were transferred into a 384 “master plate” including the following concentrations 1,820, […], 182, 54.6, 18.2, 5.46, 1.82 and 0.546 μM, respectively in 90% of DMSO.
Assay plates: Identical assay plates were then prepared by pipetting 100 nL each of compound dilutions of the master plates into 384-well “assay plates”. In the following the compounds were mixed with 9 μL of assays components plus 9 μL enzyme corresponding to a 1:181 dilution steps enabling the final concentration of 10, 3.0, 1.0, 0.3, 0.1, 0.03, 0.01 and 0.003 μM, respectively. The preparation of the master plates were handled by the Matrix PlateMate Plus robot and replication of assay plates by the HummingBird robot.
For `CS(=O)(=O)c1ccc(-n2ccc3cnc(Nc4ccc5c(c4)OCO5)nc32)cc1` [Example 15, Benzo[1,3]dioxol-5-yl-[7-(4-methanesulfonyl-phenyl)-7H-pyrrolo[2,3-d]pyrimidin-2-yl]-amine], the IC50 was 8.5 nM.

As for `CN1CCN(c2ccc(Nc3ncc4ccn(-c5ccc(S(C)(=O)=O)cc5)c4n3)cc2)CC1` [Example 18, [7-(4-Methanesulfonyl-phenyl)-7H-pyrrolo[2,3-d]pyrimidin-2-yl]-[4-(4-methyl-piperazin-1-yl)-phenyl]-amine], the IC50 is < 3 nM.

For the compound `CC(C)(C)OC(=O)N1CCN(Cc2ccc(Nc3ncc4ccn(-c5ccc(S(C)(=O)=O)cc5)c4n3)cc2)CC1` [Example 45, 4-{4-[7-(4-Methanesulfonyl-phenyl)-7H-pyrrolo[2,3-d]pyrimidin-2-ylamino]-benzyl}-piperazine-1-carboxylic acid tert-butyl ester], the IC50 worked out at 6.1 nM.

In the case of `CN1CCN(Cc2ccc(Nc3ncc4ccn(-c5ccc(S(C)(=O)=O)cc5)c4n3)cc2)CC1` [Example 38, [7-(4-Methanesulfonyl-phenyl)-7H-pyrrolo[2,3-d]pyrimidin-2-yl]-[4-(4-methyl-piperazin-1-ylmethyl)-phenyl]-amine], the IC50 was found to be 4.5 nM.

Consider `COc1cc(Nc2ncc3ccn(-c4ccc(S(=O)(=O)N(C)C)cc4)c3n2)cc(OC)c1OC` [Example 10, N,N-Dimethyl-4-[2-(3,4,5-trimethoxy-phenylamino)-pyrrolo[2,3-d]pyrimidin-7-yl]-benzenesulfonamide], for which the IC50 was < 3 nM.

For the compound `CN1CCN(c2ccc(Nc3ncc4ccn(-c5ccc(S(N)(=O)=O)cc5)c4n3)cc2)CC1` [Example 349, 4-{2-[4-(4-Methyl-piperazin-1-yl)-phenylamino]-pyrrolo[2,3-d]pyrimidin-7-yl}-benzenesulfonamide], the IC50 worked out at 16 nM.

Consider `CN1CCN(Cc2ccc(Nc3ncc4ccn(-c5cc(F)c(CN6CCOCC6)c(F)c5)c4n3)cc2C(F)(F)F)CC1` [Example 200, [7-(3,5-Difluoro-4-morpholin-4-ylmethyl-phenyl)-7H-pyrrolo[2,3-d]pyrimidin-2-yl]-[4-(4-methyl-piperazin-1-ylmethyl)-3-trifluoromethyl-phenyl]-amine], for which the 50% inhibitory concentration (IC50) came out at 3.7 nM.

With `CCN1CCN(c2ccc(Nc3ncc4ccn(-c5ccc(CC(=O)N6CCN(C)CC6)cc5)c4n3)cc2C)CC1` [Example 284, 2-(4-{2-[4-(4-Ethyl-piperazin-1-yl)-3-methyl-phenylamino]-pyrrolo[2,3-d]pyrimidin-7-yl}-phenyl)-1-(4-methyl-piperazin-1-yl)-ethanone], the IC50 stood at 3.7 nM.

In the case of `O=S1(=O)CCN(Cc2c(F)cc(-n3ccc4cnc(Nc5ccnc(N6CCNC7(CC7)C6)c5)nc43)cc2F)CC1` [Example 442], the IC50 is ≤ 3 nM.

Turning to `COc1ccc(Nc2ncc3ccn(-c4ccc(S(C)(=O)=O)cc4)c3n2)cc1O` [Example 24, 5-[7-(4-Methanesulfonyl-phenyl)-7H-pyrrolo[2,3-d]pyrimidin-2-ylamino]-2-methoxy-phenol], the half-inhibitory concentration (IC50) came to 3.5 nM.

With `CC(C)(C)NS(=O)(=O)c1ccc(-n2ccc3cnc(Nc4ccc(CN5CCN(C6CC6)CC5)cc4)nc32)cc1` [Example 345, N-tert-Butyl-4-{2-[4-(4-cyclopropyl-piperazin-1-ylmethyl)-phenylamino]-pyrrolo[2,3-d]pyrimidin-7-yl}-benzenesulfonamide], the IC50 was determined as 3.3 nM.

Regarding `CN(C)c1ccc(Nc2ncc3ccn(-c4ccc(S(C)(=O)=O)cc4)c3n2)cc1` [Example 21, N-[7-(4-Methanesulfonyl-phenyl)-7H-pyrrolo[2,3-d]pyrimidin-2-yl]-N′,N′-dimethyl-benzene-1,4-diamine], the IC50 was 23 nM.

As for `CC(=O)N1CCN(Cc2ccc(Nc3ncc4ccn(-c5ccc(C(=O)N6CCOCC6)c(F)c5)c4n3)cc2)CC1` [Example 322, 1-[4-(4-{7-[3-Fluoro-4-(morpholine-4-carbonyl)-phenyl]-7H-pyrrolo[2,3-d]pyrimidin-2-ylamino}-benzyl)-piperazin-1-yl]-ethanone], the IC50 is < 3 nM.

In the case of `C[C@@H]1CN[C@@H](C)CN1c1ccc(Nc2ncc3ccn(-c4ccc(S(N)(=O)=O)cc4)c3n2)cn1` (racemic) [Example 357, 4-{2-[6-((2R,5S)-2,5-Dimethyl-piperazin-1-yl)-pyridin-3-ylamino]-pyrrolo[2,3-d]pyrimidin-7-yl}-benzenesulfonamide], the IC50 was determined as 6.9 nM.

As for `Cc1ccc(Nc2ncc3ccn(-c4cc(F)c(CN5CCNC(=O)C5)c(F)c4)c3n2)cc1CN1CCOCC1` [Example 344, 4-{2,6-Difluoro-4-[2-(4-methyl-3-morpholin-4-ylmethyl-phenylamino)-pyrrolo[2,3-d]pyrimidin-7-yl]-benzyl}-piperazin-2-one], the concentration for half-maximal inhibition (IC50) is ≤ 3 nM.

`CN1CCN2c3ccc(Nc4ncc5ccn(-c6ccc(S(C)(=O)=O)cc6)c5n4)cc3COCC2C1` (stereo not drawn) [Example 12, [7-(4-Methanesulfonyl-phenyl)-7H-pyrrolo[2,3-d]pyrimidin-2-yl]-(3-methyl-1,2,3,4,4a,5-hexahydro-7H-6-oxa-3,11b-diaza-dibenzo[a,c]cyclohepten-9-yl)-amine]: the IC50 was < 3 nM.

As for `CN1CCN(c2ncc(Nc3ncc4ccn(-c5ccc(S(C)(=O)=O)cc5)c4n3)cn2)CC1` [Example 276, [7-(4-Methanesulfonyl-phenyl)-7H-pyrrolo[2,3-d]pyrimidin-2-yl]-[2-(4-methyl-piperazin-1-yl)-pyrimidin-5-yl]-amine], the IC50 is 120 nM.

With `COc1ccc(Nc2ncc3ccn(-c4ccc(S(C)(=O)=O)cc4)c3n2)cc1N1CCN(C)CC1` [Example 25, [7-(4-Methanesulfonyl-phenyl)-7H-pyrrolo[2,3-d]pyrimidin-2-yl]-[4-methoxy-3-(4-methyl-piperazin-1-yl)-phenyl]-amine], the half-inhibitory concentration (IC50) is < 3 nM.

Regarding `Cc1ccc(Nc2ncc3ccn(-c4ccc(C(=O)N5CCOCC5)cc4)c3n2)cc1CN1CCN(C)CC1` [Example 437, (4-{2-[4-Methyl-3-(4-methyl-piperazin-1-ylmethyl)-phenylamino]-pyrrolo[2,3-d]pyrimidin-7-yl}-phenyl)-morpholin-4-yl-methanone], the IC50 was determined as 3.3 nM.

With `OC1CCN(Cc2ccc(Nc3ncc4ccn(-c5cc(F)c(CN6CCOCC6)c(F)c5)c4n3)cn2)C1` (racemic) [Example 388, 1-{5-[7-(3,5-Difluoro-4-morpholin-4-ylmethyl-phenyl)-7H-pyrrolo[2,3-d]pyrimidin-2-ylamino]-pyridin-2-ylmethyl}-pyrrolidin-3-ol], the concentration for half-maximal inhibition (IC50) is ≤ 3 nM.

For the compound `CS(=O)(=O)c1ccc(-n2ccc3cnc(Nc4ccccc4)nc32)cc1` [Example 19, [7-(4-Methanesulfonyl-phenyl)-7H-pyrrolo[2,3-d]pyrimidin-2-yl]-phenyl-amine], the IC50 amounted to 6.9 nM.

With `CCN1CCCC1CNC(=O)c1ccc(-n2ccc3cnc(Nc4ccc(F)cc4)nc32)cc1` (stereo not drawn) [Example 63, N-(1-Ethyl-pyrrolidin-2-ylmethyl)-4-[2-(4-fluoro-phenylamino)-pyrrolo[2,3-d]pyrimidin-7-yl]-benzamide], the IC50 was determined as 73 nM.

Regarding `CCN(CC)CCOc1ccc(Nc2ncc3ccn(-c4ccc(S(C)(=O)=O)cc4)c3n2)cc1` [Example 33, [4-(2-Diethylamino-ethoxy)-phenyl]-[7-(4-methanesulfonyl-phenyl)-7H-pyrrolo[2,3-d]pyrimidin-2-yl]-amine], the IC50 is < 3 nM.

In the case of `COc1ccc(Nc2ncc3ccn(-c4ccc(S(C)(=O)=O)cc4)c3n2)c(OC)c1` [Example 22, (2,4-Dimethoxy-phenyl)-[7-(4-methanesulfonyl-phenyl)-7H-pyrrolo[2,3-d]pyrimidin-2-yl]-amine], the IC50 was 170 nM.
